Laboratory results from ChEMBL document CHEMBL5505970 (J Med Chem, 2024).
Activity calls are given as the source filed them. No cut-off for these calls is given here.

How the values were obtained:
[1] = Clearance in CD-1 mouse at 1 mg/kg, iv formulated as a solution in 10% PG:18% PEG400 in water or 5% NMP:95% (10% VitE TPGS in water) measured for 24 hrs by reverse phase liquid chromatography coupled to mass spectrometry; type: ADME, organism-based; conditions: in vivo
[2] = Clearance in rat hepatocytes at 1 uM measured per million cells by ESI/LC-MS/MS analysis; type: ADME, cell-based, Hepatocyte; conditions: read-out: CLH
[3] = Toxicity in BALB/c mouse assessed as early stage erythroblasts in bone marrow at 10 mg/kg, po qd for 3 days and measured at 2 days after treatment discontinuation by flow cytometry; type: organism-based; conditions: in vivo, 72 h, time 3 day
[4] = Toxicity in BALB/c mouse assessed as red blood cells in bone marrow at 10 mg/kg, po qd for 3 days and measured at 4 days after treatment discontinuation; type: organism-based; conditions: in vivo, 72 h, time 3 day
[5] = Oral bioavailability in cynomolgus monkey at 1 mg/kg formulated as suspension in 10% propylene glycol:18% PEG400 in water measured for 24 hrs by reverse phase liquid chromatography coupled to mass spectrometry; type: ADME, organism-based, Macaca fascicularis; conditions: in vivo
[6] = Toxicity in BALB/c mouse assessed as megakaryocytes in bone marrow at 10 mg/kg, po qd for 3 days; type: organism-based; conditions: in vivo, 72 h, time 3 day
[7] = Oral bioavailability in Sprague-Dawley rat at 2.5 to 5 mg/kg formulated as a solution in 5% NMP:95% (10% VitE TPGS in water) measured for 24 hrs by reverse phase liquid chromatography coupled to mass spectrometry; type: ADME, organism-based; conditions: in vivo, dose 2.5-5 mg/kg
[8] = Toxicity in BALB/c mouse assessed as reduction in bone marrow cell viability at 10 mg/kg, po qd for 3 days by trypan blue exclusion assay; type: organism-based; conditions: in vivo, 72 h, time 3 day
[9] = Clearance in dog hepatocytes at 1 uM measured per million cells by ESI/LC-MS/MS analysis; type: ADME, cell-based, Canis lupus familiaris, Hepatocyte; conditions: read-out: CLH
[10] = Toxicity in NOD-SCID mouse xenografted with human Granta-519 cells assessed as early stage erythroblasts in bone marrow at 10 mg/kg, po qd for 3 days co-administered with PARP inhibitor, niraparib and measured at 2 days after treatment cessation by flow cytometry; type: organism-based; conditions: in vivo, 72 h, time 3 day
[11] = target: Phosphatidylinositol 4-phosphate 3-kinase C2 domain-containing subunit beta (Homo sapiens) (UniProt O00750); test: Inhibition of PIK3C2B in human Jurkat cell lysates at 0.3 uM in presence of biotinylated ADP by KiNativ profiling based mass spectrometry; type: subcellular
[12] = Toxicity in NOD-SCID mouse xenografted with human Granta-519 cells assessed as late stage erythroblasts in bone marrow at 10 mg/kg, po qd for 3 days co-administered with PARP inhibitor, niraparib and measured at 2 days after treatment cessation by flow cytometry; type: organism-based; conditions: in vivo, 72 h, time 3 day
[13] = Toxicity in NOD-SCID mouse xenografted with human Granta-519 cells assessed as late stage erythroblasts in bone marrow at 10 mg/kg, po qd for 3 days co-administered with PARP inhibitor, niraparib and measured at 4 days after treatment cessation by flow cytometry; type: organism-based; conditions: in vivo, 72 h, time 3 day
[14] = Oral bioavailability in CD-1 mouse at 20 mg/kg formulated as suspension in 0.5% methocel and 0.02% SLS in 50 mM citrate buffer measured for 24 hrs by reverse phase liquid chromatography coupled to mass spectrometry; type: ADME, organism-based; conditions: in vivo
[15] = target: Serine-protein kinase ATM (Homo sapiens, UniProt Q13315); test: Inhibition of ATM in human Jurkat cell lysates at 0.3 uM in presence of biotinylated ADP by KiNativ profiling based mass spectrometry; type: subcellular
[16] = Clearance in Beagle dog at 0.5 mg/kg, iv formulated as a solution in 10% PG:18% PEG400 in water or 5% NMP:95% (10% VitE TPGS in water) measured for 24 hrs by reverse phase liquid chromatography coupled to mass spectrometry; type: ADME, organism-based, Canis lupus familiaris; conditions: in vivo
[17] = Toxicity in NOD-SCID mouse xenografted with human Granta-519 cells assessed as reticulocytes count at 5 mg/kg, po qd for 3 days and 4 days off intermittent dosing for 3 cycles co-administered with PARP inhibitor, niraparib from day 3 to day 6 in each cycle and measured on day 21; type: organism-based; conditions: in vivo, 504 h, time 21 day
Granta-519 = test: Antitumor activity against human Granta-519 cells xenografted in NOD-SCID mouse assessed as decrease in tumor volume at 30 mg/kg, po qd for 3 days and measured at 4 days after drug treatment cessation; type: functional, organism-based; conditions: time 3.0 day
[18] = Oral bioavailability in Beagle dog at 5 mg/kg formulated as suspension in 0.5% methocel and 0.02% SLS in 50 mM citrate buffer measured for 24 hrs by reverse phase liquid chromatography coupled to mass spectrometry; type: ADME, organism-based, Canis lupus familiaris; conditions: in vivo
[19] = Clearance in mouse liver microsomes at 1 uM in presence of NADPH by ESI/LC-MS/MS analysis; type: ADME, Microsome; conditions: read-out: CLH
[20] = Clearance in monkey hepatocytes at 1 uM in presence of NADPH by ESI/LC-MS/MS analysis; type: ADME, cell-based, Macaca mulatta, Hepatocyte; conditions: rhesus monkey
[21] = Toxicity in BALB/c mouse assessed as increase in proportion of red blood cells in bone marrow at 10 mg/kg, po qd for 3 days; type: organism-based; conditions: in vivo, 72 h, time 3 day
[22] = Toxicity in NOD-SCID mouse xenografted with human Granta-519 cells assessed as early stage erythroblasts in bone marrow at 10 mg/kg, po qd for 3 days and measured at 4 days after treatment cessation by flow cytometry; type: organism-based; conditions: in vivo, 72 h, time 3 day
[23] = Toxicity in NOD-SCID mouse xenografted with human Granta-519 cells assessed as changes in body weight at 25 mg/kg, po qd for 5 days and measured at 2 days after drug treatment cessation; type: organism-based; conditions: in vivo, 120 h, time 5 day
[24] = Toxicity in NOD-SCID mouse xenografted with human Granta-519 cells assessed as reduction in late stage erythroblasts in bone marrow at 10 mg/kg, po qd for 1 day co-administered with PARP inhibitor, niraparib by flow cytometry; type: organism-based; conditions: in vivo, 24 h
[25] = Toxicity in NOD-SCID mouse xenografted with human Granta-519 cells assessed as red blood cells at 30 mg/kg, po qd for 3 days and 4 days off treatment and measured on day 14; type: organism-based; conditions: in vivo, 72 h, time 3 day
[26] = Toxicity in NOD-SCID mouse xenografted with human Granta-519 cells assessed as early stage erythroblasts in bone marrow at 10 mg/kg, po qd for 3 days co-administered with PARP inhibitor, niraparib and measured at 4 days after treatment cessation by flow cytometry; type: organism-based; conditions: in vivo, 72 h, time 3 day
[27] = Clearance in Sprague-Dawley rat at 1 mg/kg, iv formulated as a solution in 10% PG:18% PEG400 in water or 5% NMP:95% (10% VitE TPGS in water) measured for 24 hrs by reverse phase liquid chromatography coupled to mass spectrometry; type: ADME, organism-based; conditions: in vivo
[28] = Toxicity in NOD-SCID mouse xenografted with human Granta-519 cells assessed as red blood cells count at 5 mg/kg, po qd for 3 days and 4 days off intermittent dosing for 3 cycles co-administered with PARP inhibitor, niraparib from day 3 to day 6 in each cycle and measured on day 21; type: organism-based; conditions: in vivo, 504 h, time 21 day
[29] = target: Serine/threonine-protein kinase ATR (Homo sapiens, UniProt Q13535); test: Inhibition of ATR in human Jurkat cell lysates at 0.003 to 0.3 uM in presence of biotinylated ADP by KiNativ profiling based mass spectrometry; type: subcellular; conditions: dose 0.003-0.3 µM

Phosphatidylinositol 4-phosphate 3-kinase C2 domain-containing subunit beta (Homo sapiens), sequence (O00750 whole entry, the tested form may be a part): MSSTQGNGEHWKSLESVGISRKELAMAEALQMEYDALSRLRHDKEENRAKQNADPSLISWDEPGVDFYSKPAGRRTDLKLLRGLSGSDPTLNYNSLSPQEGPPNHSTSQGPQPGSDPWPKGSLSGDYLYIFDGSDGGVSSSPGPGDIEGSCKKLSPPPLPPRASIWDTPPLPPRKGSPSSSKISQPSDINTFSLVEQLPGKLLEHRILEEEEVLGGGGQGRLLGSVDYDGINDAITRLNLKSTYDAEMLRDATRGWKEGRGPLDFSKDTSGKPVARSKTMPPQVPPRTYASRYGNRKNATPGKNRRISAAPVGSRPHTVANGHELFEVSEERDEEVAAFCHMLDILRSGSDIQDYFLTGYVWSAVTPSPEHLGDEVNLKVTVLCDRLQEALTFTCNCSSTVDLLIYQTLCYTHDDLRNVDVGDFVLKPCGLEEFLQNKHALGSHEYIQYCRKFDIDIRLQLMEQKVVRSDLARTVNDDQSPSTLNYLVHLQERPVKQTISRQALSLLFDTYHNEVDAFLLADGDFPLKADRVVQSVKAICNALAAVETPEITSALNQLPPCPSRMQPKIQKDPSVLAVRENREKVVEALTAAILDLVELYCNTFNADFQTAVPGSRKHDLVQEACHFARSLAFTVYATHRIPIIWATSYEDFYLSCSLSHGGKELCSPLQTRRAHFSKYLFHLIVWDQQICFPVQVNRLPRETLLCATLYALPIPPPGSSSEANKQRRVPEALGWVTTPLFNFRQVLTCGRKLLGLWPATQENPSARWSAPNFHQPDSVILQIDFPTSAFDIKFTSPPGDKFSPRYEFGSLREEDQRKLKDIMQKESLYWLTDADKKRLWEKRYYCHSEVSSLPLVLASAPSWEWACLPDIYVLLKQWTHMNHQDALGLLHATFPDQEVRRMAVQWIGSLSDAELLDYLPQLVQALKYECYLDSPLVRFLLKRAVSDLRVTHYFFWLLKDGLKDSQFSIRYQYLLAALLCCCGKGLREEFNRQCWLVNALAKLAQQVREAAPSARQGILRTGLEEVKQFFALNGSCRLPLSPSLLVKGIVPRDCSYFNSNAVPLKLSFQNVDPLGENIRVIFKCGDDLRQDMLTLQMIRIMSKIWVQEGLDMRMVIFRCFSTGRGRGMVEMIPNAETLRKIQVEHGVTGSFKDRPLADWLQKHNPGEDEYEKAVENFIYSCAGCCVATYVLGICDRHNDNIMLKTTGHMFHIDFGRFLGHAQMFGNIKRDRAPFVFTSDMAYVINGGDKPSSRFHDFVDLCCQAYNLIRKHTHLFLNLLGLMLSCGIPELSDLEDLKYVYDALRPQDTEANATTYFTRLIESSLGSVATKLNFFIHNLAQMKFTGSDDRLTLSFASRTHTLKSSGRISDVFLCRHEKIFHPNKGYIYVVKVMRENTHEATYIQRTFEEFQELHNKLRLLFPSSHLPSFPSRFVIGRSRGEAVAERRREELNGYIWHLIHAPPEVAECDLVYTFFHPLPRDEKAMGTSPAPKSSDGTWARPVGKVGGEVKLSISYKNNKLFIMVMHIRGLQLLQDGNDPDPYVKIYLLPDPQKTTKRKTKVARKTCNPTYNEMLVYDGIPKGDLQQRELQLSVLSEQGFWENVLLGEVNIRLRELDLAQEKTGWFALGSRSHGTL
Serine-protein kinase ATM, sequence (Q13315 whole entry): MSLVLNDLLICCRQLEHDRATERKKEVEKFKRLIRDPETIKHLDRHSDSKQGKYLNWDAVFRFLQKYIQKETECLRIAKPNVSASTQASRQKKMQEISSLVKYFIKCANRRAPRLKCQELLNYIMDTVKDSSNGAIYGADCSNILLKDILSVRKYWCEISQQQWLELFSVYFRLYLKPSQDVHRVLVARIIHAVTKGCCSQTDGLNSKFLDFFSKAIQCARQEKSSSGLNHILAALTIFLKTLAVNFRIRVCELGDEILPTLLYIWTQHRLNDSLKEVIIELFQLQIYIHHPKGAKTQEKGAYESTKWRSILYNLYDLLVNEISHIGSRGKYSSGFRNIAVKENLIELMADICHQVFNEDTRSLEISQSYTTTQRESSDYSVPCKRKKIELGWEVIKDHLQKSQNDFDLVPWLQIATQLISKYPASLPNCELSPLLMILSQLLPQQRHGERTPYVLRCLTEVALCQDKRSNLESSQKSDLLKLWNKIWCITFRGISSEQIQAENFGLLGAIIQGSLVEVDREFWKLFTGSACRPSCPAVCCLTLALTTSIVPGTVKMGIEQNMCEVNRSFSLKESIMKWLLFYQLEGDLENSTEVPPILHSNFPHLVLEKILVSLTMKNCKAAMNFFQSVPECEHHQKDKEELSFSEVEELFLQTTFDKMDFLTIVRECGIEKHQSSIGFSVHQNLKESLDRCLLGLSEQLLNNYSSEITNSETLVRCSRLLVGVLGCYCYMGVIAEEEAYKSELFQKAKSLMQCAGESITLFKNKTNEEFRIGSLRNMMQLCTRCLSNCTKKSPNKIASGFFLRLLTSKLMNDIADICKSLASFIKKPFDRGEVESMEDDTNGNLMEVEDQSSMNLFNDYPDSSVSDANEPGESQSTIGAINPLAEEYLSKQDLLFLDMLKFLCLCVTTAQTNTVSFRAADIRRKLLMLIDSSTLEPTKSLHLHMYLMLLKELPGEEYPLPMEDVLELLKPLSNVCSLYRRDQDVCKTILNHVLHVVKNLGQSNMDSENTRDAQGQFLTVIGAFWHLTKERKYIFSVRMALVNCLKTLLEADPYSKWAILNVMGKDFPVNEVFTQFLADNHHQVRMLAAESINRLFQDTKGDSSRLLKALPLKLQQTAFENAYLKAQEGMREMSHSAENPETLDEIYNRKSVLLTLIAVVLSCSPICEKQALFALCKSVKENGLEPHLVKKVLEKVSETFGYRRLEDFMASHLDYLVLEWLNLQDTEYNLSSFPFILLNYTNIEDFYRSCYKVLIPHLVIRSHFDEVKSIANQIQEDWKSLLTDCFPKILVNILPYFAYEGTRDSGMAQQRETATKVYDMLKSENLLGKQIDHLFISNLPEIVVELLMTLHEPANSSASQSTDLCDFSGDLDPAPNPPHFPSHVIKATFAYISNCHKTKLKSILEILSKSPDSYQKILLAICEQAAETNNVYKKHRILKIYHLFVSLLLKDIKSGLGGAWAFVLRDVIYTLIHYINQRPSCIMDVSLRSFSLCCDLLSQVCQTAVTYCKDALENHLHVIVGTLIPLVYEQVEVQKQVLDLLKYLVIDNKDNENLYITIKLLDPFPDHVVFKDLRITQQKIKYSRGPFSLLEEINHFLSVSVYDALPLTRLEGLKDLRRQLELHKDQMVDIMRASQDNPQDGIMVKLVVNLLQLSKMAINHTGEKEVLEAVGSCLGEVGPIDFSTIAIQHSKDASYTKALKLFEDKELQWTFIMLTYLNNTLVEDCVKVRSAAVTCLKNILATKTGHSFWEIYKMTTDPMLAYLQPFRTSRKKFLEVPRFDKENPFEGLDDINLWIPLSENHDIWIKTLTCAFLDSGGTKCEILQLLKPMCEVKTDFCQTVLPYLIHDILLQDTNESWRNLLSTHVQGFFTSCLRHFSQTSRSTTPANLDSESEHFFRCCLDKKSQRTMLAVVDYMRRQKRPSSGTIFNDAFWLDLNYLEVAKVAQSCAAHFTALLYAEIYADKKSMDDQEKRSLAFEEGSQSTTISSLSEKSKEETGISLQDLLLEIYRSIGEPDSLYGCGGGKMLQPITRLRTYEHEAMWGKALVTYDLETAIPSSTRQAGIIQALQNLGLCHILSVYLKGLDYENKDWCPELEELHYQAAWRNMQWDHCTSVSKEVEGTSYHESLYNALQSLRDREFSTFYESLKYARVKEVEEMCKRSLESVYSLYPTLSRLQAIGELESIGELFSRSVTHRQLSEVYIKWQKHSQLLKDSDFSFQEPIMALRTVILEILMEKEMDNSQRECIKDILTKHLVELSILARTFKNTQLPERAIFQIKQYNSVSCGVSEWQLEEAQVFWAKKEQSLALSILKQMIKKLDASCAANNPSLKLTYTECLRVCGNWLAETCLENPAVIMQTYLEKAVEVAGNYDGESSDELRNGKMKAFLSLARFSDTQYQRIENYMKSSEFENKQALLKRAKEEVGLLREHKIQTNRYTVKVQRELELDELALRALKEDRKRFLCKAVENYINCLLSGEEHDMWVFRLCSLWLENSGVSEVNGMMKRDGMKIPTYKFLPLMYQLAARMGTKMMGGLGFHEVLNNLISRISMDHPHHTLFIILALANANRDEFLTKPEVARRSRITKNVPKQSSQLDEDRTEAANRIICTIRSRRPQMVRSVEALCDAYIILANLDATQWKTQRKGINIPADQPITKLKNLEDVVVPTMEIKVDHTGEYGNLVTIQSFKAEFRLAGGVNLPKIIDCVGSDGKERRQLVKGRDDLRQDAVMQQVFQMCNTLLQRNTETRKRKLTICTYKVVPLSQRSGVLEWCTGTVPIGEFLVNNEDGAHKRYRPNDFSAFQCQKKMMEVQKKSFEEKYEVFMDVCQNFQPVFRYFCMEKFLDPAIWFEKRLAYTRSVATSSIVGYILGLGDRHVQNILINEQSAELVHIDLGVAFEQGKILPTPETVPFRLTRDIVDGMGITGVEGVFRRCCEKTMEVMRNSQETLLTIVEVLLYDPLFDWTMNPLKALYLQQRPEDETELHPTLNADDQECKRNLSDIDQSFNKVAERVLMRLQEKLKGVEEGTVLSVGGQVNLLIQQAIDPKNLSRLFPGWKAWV

**Q.** With `C[C@@H]1COCCN1c1cc([C@]2(O)C[C@H]3CC[C@@H](C2)O3)c2cnn(-c3cc[nH]n3)c2n1` [CAMONSERTIB] as the molecule, how does the clearance [1] read?
**A.** 1.2 mL/min/kg

**Q.** And the hepatocyte CLint at 1 µM [2]?
**A.** 17 µL/min/1e6 cells

**Q.** And the Activity [3]?
**A.** Non-Toxic

**Q.** What about the Activity [4] of the same molecule?
**A.** Non-Toxic

**Q.** What about the bioavailability [5] of the same molecule?
**A.** 56%

**Q.** What about the Activity [6] of the same molecule?
**A.** Non-Toxic

**Q.** And the bioavailability [7]?
**A.** 66%

**Q.** What about the Activity [8] of the same molecule?
**A.** Toxic

**Q.** And the hepatocyte CLint at 1 µM [9]?
**A.** < 1 µL/min/1e6 cells

**Q.** And the Activity [10]?
**A.** Non-Toxic

**Q.** And the inhibition [11]?
**A.** Active

**Q.** And the Activity [12]?
**A.** Non-Toxic

**Q.** And the Activity [13]?
**A.** Non-Toxic

**Q.** What about the bioavailability [14] of the same molecule?
**A.** 72%

**Q.** And the inhibition [15]?
**A.** Active

**Q.** What about the clearance [16] of the same molecule?
**A.** 10.1 mL/min/kg

**Q.** What about the Activity [17] of the same molecule?
**A.** Non-Toxic

**Q.** And the Activity (Granta-519)?
**A.** Active

**Q.** And the bioavailability [18]?
**A.** 113%

**Q.** What about the microsomal CLint at 1 µM [19] of the same molecule?
**A.** 25 µL/min/mg

**Q.** What about the CLH [20] of the same molecule?
**A.** 3.6 µL/min

**Q.** And the Activity [21]?
**A.** Toxic

**Q.** What about the Activity [22] of the same molecule?
**A.** Non-Toxic

**Q.** What about the Activity [23] of the same molecule?
**A.** Non-Toxic

**Q.** What about the Activity [24] of the same molecule?
**A.** Toxic

**Q.** And the Activity [25]?
**A.** Non-Toxic

**Q.** What about the Activity [26] of the same molecule?
**A.** Non-Toxic

**Q.** And the clearance [27]?
**A.** 22 mL/min/kg

**Q.** And the Activity [28]?
**A.** Non-Toxic

**Q.** And the inhibition [29]?
**A.** Active
